By IC50 is commonly meant the midpoint of a concentration-inhibition curve. The low end stands for higher potency, the high end for lower potency. Usually inhibition stands for the share of the control response that was lost under treatment.

From ChEMBL document CHEMBL3286190, “Discovery of antitubulin agents with antiangiogenic activity as single entities with multitarget chemotherapy potential” (ACS Med Chem Lett, 2014) come the findings set out here.

The source made the active and inactive calls. No cut-off for these calls is given here. Bounds are passed on as bounds.

Data set [1] deals with HeLa. In words: Growth inhibition of wild type human HeLa cells after 96 hrs incubation by sulforhodamine B technique. It is filed as functional, cell-based.
Data set [2] deals with HeLa. In words: Growth inhibition of human HeLa cells overexpressing beta-3 after 96 hrs incubation by sulforhodamine B technique. It is filed as functional, cell-based.
Data set [3] addresses Tubulin (Bos taurus, UniProt Q6B856+Q862L2+Q862F3). Nature of the data set: Inhibition of bovine brain tubulin assembly preincubated for 15 mins followed by GTP addition measured for 20 mins by spectrophotometry.
The nature of data set [4]: Growth inhibition of human OVCAR8 cells after 96 hrs incubation by sulforhodamine B technique. Type of data set: functional, cell-based. The conditions noted are these: OVCAR-8, 96 h.
Data set [5] has as its system U-251. The conditions noted are these: Homo sapiens, 25 mg/kg.
Description: Antitumor activity against human U251 cells xenografted into athymic NCr mouse assessed as decrease in tumor growth at 25 mg/kg twice weekly measured up to 34 days
The subject of data set [6] is NCI/ADR-RES. Nature of the data set: Growth inhibition of human NCI/ADR-RES cells overexpressing P-gp after 96 hrs incubation by sulforhodamine B technique. Type of data set: functional, cell-based.
In data set [7] the test system is 4T1. The conditions noted are these: Mus musculus, 25 mg/kg.
Description: Antitumor activity against mouse 4T1 cells expressing luciferase allografted in BALBc/J mouse assessed as suppression of tumor growth at 25 mg/kg twice weekly measured up to 30 days
The test system of data set [8] is MDA-MB-435. Particulars: Homo sapiens, 25 mg/kg.
Description: Antitumor activity against human MDA-MB-435 cells xenografted into flank of athymic BALBc/J mouse assessed as decrease in tumor growth at 25 mg/kg twice weekly measured up to 34 days
The species entered for data set [9] is Homo sapiens. In words: Disruption of microtubule organization in human MDA-MB-435 cells at IC50 concentration after 2 hrs by immunofluorescence assay. It is filed as cell-based.
Data set [10] has as its system Chorioallantoic membrane. Nature of the data set: tissue or blood. Particulars: Gallus gallus.
Description: Antiangiogenic activity in chicken chorioallantoic membrane assessed as inhibition of VEGF/bFGF-induced angiogenesis treated 8 hrs after VEGF/bFGF addition measured after 40 hrs by microscopy
The subject of data set [11] is MDA-MB-435. Nature of the data set: Induction of apoptosis in human MDA-MB-435 cells assessed as PARP cleavage at IC50 concentration after 48 hrs by Western blotting analysis. It is filed as functional, cell-based.
Data set [12] relates to 4T1. The conditions noted are these: Mus musculus, 25 mg/kg. This is another data set of the same source.
Description: Antitumor activity against ip dosed mouse 4T1 cells expressing luciferase allografted in BALBc/J mouse assessed as reduction in lung metastases at 25 mg/kg twice weekly measured after 32 days
The test system of data set [13] is MDA-MB-435. Nature of the data set: Induction of apoptosis in human MDA-MB-435 cells assessed as caspase 3 cleavage at IC50 concentration after 48 hrs by Western blotting analysis. Type of data set: functional, cell-based. (Immunoblotting shows a protein as a band on a membrane.)
Data set [14] addresses Tubulin (Homo sapiens) (UniProt P68371+Q9H4B7+P0DPH7+P68366+Q13509+Q71U36+P04350+Q3ZCM7+P07437+P68363+Q9BQE3+Q6PEY2+Q13885+Q9BVA1+Q9BUF5). In words: Displacement of [3H]-colchicine from tubulin (unknown origin) at 50 uM relative to control. Type of data set: protein-complex assay. A general note: Displacement assays read how much labelled ligand stays bound in the presence of the test substance.

The test system of data set [15] is Mus musculus. Nature of the data set: Toxicity in athymic NCr mouse xenografted with human U251 cells at 25 mg/kg twice weekly measured up to 34 days. It is filed as organism-based, U-251. Further details: dose 25 mg/kg. Particulars: in vivo, 816 h.
In data set [16] the test system is MDA-MB-435. The conditions noted are these: Homo sapiens, 25 mg/kg. The source holds these as a separate data set.
Description: Antitumor activity against human MDA-MB-435 cells xenografted into flank of athymic BALBc/J mouse assessed as decrease in tumor vascular density at 25 mg/kg twice weekly by CD31/PECAM-1 immunohistochemical staining
Data set [17] deals with NCI60. In words: Growth inhibition of human NCI60 cells after 96 hrs incubation by sulforhodamine B technique. It is filed as functional, cell-based.
Data set [18] has as its system Mus musculus. In words: Toxicity in athymic BALBc/J mouse xenografted with human MDA-MB-435 cells assessed as body weight at 25 mg/kg twice weekly. It is filed as organism-based. Further details: dose 25 mg/kg. Particulars: in vivo.
Data set [19] relates to Mus musculus. In words: Toxicity in BALBc/J mouse allografted with mouse 4T1 cells at 25 mg/kg twice weekly measured up to 32 days. It is filed as organism-based. Further details: dose 25 mg/kg. Particulars: in vivo, 768 h.
Data set [20] has as its system MDA-MB-435. In words: Cell cycle arrest in human MDA-MB-435 cells assessed as increase in accumulation at G2/M phase at IC50 concentration after 2 hrs by propidium iodide staining-based flow cytometry. It is filed as functional.
Data set [21] has as its system U-251. Nature of the data set: Antitumor activity against human U251 cells xenografted into athymic NCr mouse assessed as decrease in tumor growth at 35 mg/kg twice weekly measured up to 34 days. Also on record: dose 35 mg/kg. It is filed as functional, organism-based.
The test system of data set [22] is 4T1. Nature of the data set: Antitumor activity against ip dosed mouse 4T1 cells expressing luciferase allografted in BALBc/J mouse assessed as reduction in lung metastases at 35 mg/kg twice weekly measured after 32 days. Further details: dose 35 mg/kg. It is filed as functional, organism-based.
The subject of data set [23] is MDA-MB-435. In words: Antitumor activity against human MDA-MB-435 cells xenografted into flank of athymic BALBc/J mouse assessed as decrease in tumor vascular density at 35 mg/kg twice weekly by CD31/PECAM-1 immunohistochemical staining. It is filed as functional, organism-based. Further details: dose 35 mg/kg. In general terms: Xenograft models place foreign cells or tissue in a host animal.

The test system of data set [24] is Mus musculus. Nature of the data set: Toxicity in athymic NCr mouse xenografted with human cells at 35 mg/kg twice weekly measured up to 34 days. Particulars: in vivo, 816 h.
For data set [25], the system named is Mus musculus. Nature of the data set: Toxicity in BALBc/J mouse allografted with mouse 4T1 cells at 35 mg/kg twice weekly measured up to 32 days. Type of data set: organism-based. Further details: dose 35 mg/kg. The conditions noted are these: in vivo, 768 h.
Data set [26] concerns Mus musculus. Nature of the data set: Toxicity in athymic BALBc/J mouse xenografted with human MDA-MB-435 cells assessed as body weight at 35 mg/kg twice weekly. It is filed as organism-based. Also on record: dose 35 mg/kg. The conditions noted are these: in vivo.
Data set [27] deals with 4T1. Nature of the data set: Antitumor activity against mouse 4T1 cells expressing luciferase allografted in BALBc/J mouse assessed as suppression of tumor growth at 35 mg/kg twice weekly measured up to 30 days. Further details: dose 35 mg/kg. It is filed as functional, organism-based.
The test system of data set [28] is MDA-MB-435. In words: Antitumor activity against human MDA-MB-435 cells xenografted into flank of […] assessed as decrease in tumor growth at 35 mg/kg twice weekly measured up to 34 days. It is filed as functional, organism-based. Also on record: dose 35 mg/kg.
For data set [29], the system named is MDA-MB-435. Nature of the data set: Antitumor activity against human MDA-MB-435 cells xenografted into flank of athymic BALBc/J mouse assessed as decrease in tumor vascular density at 30 mg/kg twice weekly by CD31/PECAM-1 immunohistochemical staining. Type of data set: functional, organism-based. Also on record: dose 30 mg/kg.
The subject of data set [30] is MDA-MB-435. Nature of the data set: Antitumor activity against human MDA-MB-435 cells xenografted into flank of […] assessed as decrease in tumor growth at 30 mg/kg twice weekly measured up to 34 days. It is filed as functional, organism-based. Also on record: dose 30 mg/kg.
Data set [31] relates to Mus musculus. Nature of the data set: Toxicity in athymic NCr mouse at 30 mg/kg twice weekly measured up to 34 days. Particulars: in vivo, 816 h.
The subject of data set [32] is U-251. In words: Antitumor activity against human U251 cells xenografted into athymic NCr mouse assessed as decrease in tumor growth at 30 mg/kg twice weekly measured up to 34 days. Also on record: dose 30 mg/kg. Type of data set: functional, organism-based.
Data set [33] relates to Mus musculus. Nature of the data set: Toxicity in athymic BALBc/J mouse xenografted with human MDA-MB-435 cells assessed as body weight at 30 mg/kg twice weekly. Particulars: in vivo. Further details: dose 30 mg/kg. Type of data set: organism-based.

Regarding `COc1ccc(/C=C\c2cc(OC)c(OC)c(OC)c2)cc1O` [COMBRETASTATIN A4], the IC50 worked out at 1.8 nM in [1] and 2.5 nM in data set [2].

In the case of `COc1ccc(N(C)c2nc(C)nc3cc[nH]c23)cc1.Cl`, the IC50 in data set [3] amounted to 10000 nM.

Take `COc1ccc(N(C)c2nc(C)nc3c(Cc4ccccc4)c[nH]c23)cc1.Cl`: the IC50 stood at 1000 nM in [4]; 700 nM in [6]; 2900 nM in data set [10]; 280 nM in data set [1]; 21000 nM in data set [3]; 280 nM in [2]. Further, the inhibition entry in data set [5], in [7], in data set [8], in data set [12] and in data set [16] was “Active” in each case. Moreover, the outcome in data set [9], in data set [11], in [13] and in data set [20] was Active. For the same compound, in [14], the inhibition was 55%. The Activity result in data set [15], in [18] and in data set [19] was “Non-toxic” throughout. The “growth inhibition (GI)” value in [17] was “Active”.

As for `CC(=O)O[C@H]1C(=O)[C@@]2(C)[C@H]([C@H](OC(=O)c3ccccc3)[C@]3(O)C[C@H](OC(=O)[C@H](O)[C@@H](NC(=O)c4ccccc4)c4ccccc4)C(C)=C1C3(C)C)[C@]1(OC(C)=O)CO[C@@H]1C[C@@H]2O` [PACLITAXEL], the 50% inhibitory concentration (IC50) was 10 nM in data set [4], 5000 nM in data set [6], 5.3 nM in data set [1] and 16 nM in data set [2].

In the case of `CC(=O)O[C@@]12CO[C@@H]1C[C@H](O)[C@@]1(C)C(=O)[C@H](O)C3=C(C)[C@@H](OC(=O)[C@H](O)[C@@H](NC(=O)OC(C)(C)C)c4ccccc4)C[C@@](O)([C@@H](OC(=O)c4ccccc4)[C@H]21)C3(C)C.O.O.O` [DOCETAXEL], the inhibition entry in data set [21], in [22], in data set [23], in data set [27] and in data set [28] was “Active” throughout. The Activity entry in [24], in [25] and in data set [26] was “Non-toxic” each time.

On to `CCN(CC)CCNC(=O)c1c(C)[nH]c(/C=C2\C(=O)Nc3ccc(F)cc32)c1C` [SUNITINIB], for which the inhibition result in data set [29], in data set [30] and in [32] was “Active” in each case. Besides, the Activity entry in [31] and in [33] was “Non-toxic” each time.

Consider `Cc1nc(N(C)c2ccccc2)c2[nH]cc(Cc3ccccc3)c2n1.Cl`, for which the IC50 is above 10000 nM in data set [1], above 20000 nM in data set [3] and above 10000 nM in data set [2].

With `COc1ccc(Nc2nc(C)nc3c(Cc4ccccc4)c[nH]c23)cc1.Cl`, the results for the IC50 in [1], in [3] and in [2] were above 10000 nM, above 20000 nM and above 10000 nM, respectively.

Regarding `COc1ccc(Nc2nc(C)nc3c(Cc4ccccc4)c[nH]c23)c(OC)c1.Cl`, the IC50 in data set [4] is above 5000 nM; in data set [6] it was above 5000 nM; in [3] it was above 40000 nM.
